According to publication PMC7125190, “Native/citrullinated LL37-specific T-cells help autoantibody production in Systemic Lupus Erythematosus” (Scientific Reports, 2020):

Assays:
[1] = tested on: SLE/CLE CD4+ T-cell clones; test: T-cell clone reactivity (BrdU, HLA-matched B-LCLs pulsed with peptide); format: cell-based, human; settings: clones from one SLE and one CLE patient
Protocol: PBMCs were purified, from EDTA-treated blood, on Ficoll-Hypaque (Pharmacia Fine Chemicals, Uppsala, Sweden) were incubated (10^5 cells/well) in 96-well-flat-bottom-microplates (BD) in T cell-medium (RPMI 1640, 10% heat-inactivated human serum, HS, Gibco), 2 mM L-glutamine, 10 U/mL penicillin, and 100 μg/mL streptomycin), with/without peptides. We performed assays on fresh cells, within 1-to-3 hours from collection, or on PBMCs frozen in 90% FCS-10%DMSO, whose viability we assessed by Trypan blue exclusion, at inverted microscope. Recovery of live cells was between 65 and 85 % of the frozen number. At day3 and 5, BrdU was added (1 μg/mL). BrdU-incorporation was detected by APC-labeled anti-BrdU antibody (BD Pharmingen), after surface staining by flow cytometry. Internal control for T-cell viability and proliferation was PHA treatment (2 μg/mL). SI for proliferation was calculated by dividing percent of BrdU-staining in the presence of each peptide used to stimulate cells by percent of BrdU-staining in the absence of peptide stimulation. SI for proliferation was considered positive when>3. This cut-off was obtained by calculating the mean+2DS [1.5 + 2 (0.6)] (of the stimulation indexes calculated as above) of the proliferation of HD. […]
Assays were repeated twice with each patient. […] Ror-ɣt and Bcl-6 were measured by intracellular staining and flow cytometry, after 48 hours culture with LL37 or control antigen, and were analyzed on CD38highCD4 T-cells. […]
PBMCs were stimulated (2x10^6 cells/mL) with LL37 for 7 days and re-stimulated (10 days) with LL37-pulsed (10 µg/mL) autologous-ɣ-irradiated-(30Gy)-PBMCs in T-cell medium in the presence of human/recombinant (hr)IL-2 (Boehringer-Mannheim, Indian, USA). T cell lines-specificity was analyzed by using peptide-pulsed (0.1-10 µg/mL) autologous-irradiated PBMCs (30Gy) or lymphoblastoid-cell-lines (B-LCLs) (150Gy, 33). […]
analyzed by flow-cytometry (after staining by BrdU-detection kit, BD Pharmingen). […] Clones reactivity and HLA-restriction were analyzed using HLA-matched-homozigous B-LCLs, pulsed with […]

PBMCs = test: IL-21 production in PBMC cultures (ELISA); format: cell-based, human; settings: SLE (but not in psoriasis)
Description: analyzed by flow-cytometry (after staining by BrdU-detection kit, BD Pharmingen). Before cloning, bulk-cultures were stimulated with autologous-irradiated PBMCs and peptide over night, and stained for CD3 and CD4 and with the “Cytokine secretion assays kits” (MACS, Miltenyi Biotec) to detect IL-2-, IFN-ɣ- and/or IL-17-secretion and CD38 as an activation marker, and sorted by a cell-sorter (MoFlo Astrios, Beckman Coulter). Dead cells were excluded by DAPI staining. Sorted activated CD4+CD3+ cells, secreting cytokines were cloned by limiting dilution in Terasaki plates (Nunc Microwell, Sigma-Aldrich) in the presence of allogeneic-irradiated (104) PBMCs activated by phytohaemagglutinin (1 µg/mL, PHA, Murex, 0.5 cells/well) and 100 U/mL of hrIL-2. Clones reactivity and HLA-restriction were analyzed using HLA-matched-homozigous B-LCLs, pulsed with […]
Measurement of cytokine production in primary T-cells and T-cell lines/clones Cytokines secretion was detected by ELISA (Quantikine; R&D Systems, Minneapolis, MN) for IL-4, IL-10, IL-17, IFN-ɣ, IL-22, IL-21, or by Th1/Th2 10-Plex and IL-17-Tissue Culture Kits (read by MSD Sector Imager 2400, Meso Scale Discovery, Gaithersburg, MD). Supernatants were harvested from primary cultures at day 3 (day 2 for T-cell lines/clones). Production of cytokines was also analyzed by flow cytometry after culture of PBMCs with LL37/LL37-peptides for 6-7 days. […]

Substance	T-cell clone reactivity [1]	IL-21 production (PBMCs)
LLGDFFRKSKEKIGKEFKRIVQRIKDFLRNLVPRTES [LL37, native LL37, antimicrobial peptide, 37 aa]	Some of the T-cell clones proliferated exclusively after stimulation with native LL37	significant up-regulation
LLGDFFR(cit)KSKEKIGKEFKR(cit)IVQR(cit)IKDFLR(cit)NLVPR(cit)TES [cit-LL37, citrullinated LL37 (citrullinated at all five arginin positions)]	Other clones proliferated to both native LL37 and cit-LL37	significant up-regulation
